Assay results published in article PMC5146677, “Structural Analysis of Glycine Sarcosine N-methyltransferase from Methanohalophilus portucalensis Reveals Mechanistic Insights into the Regulation of Methyltransferase Activity” (Scientific Reports, 2016).

Columns and labels:
[1] = target: T1, MpGSMT (Methanohalophilus portucalensis, UniProt F6KV61); assay: X-ray crystal structure, co-crystal; assay type: binding; details: cofactor site; with sarcosine; 0.1 mM SAH
T1 construct: gene gsmt
T1 sequence (F6KV61 1-263): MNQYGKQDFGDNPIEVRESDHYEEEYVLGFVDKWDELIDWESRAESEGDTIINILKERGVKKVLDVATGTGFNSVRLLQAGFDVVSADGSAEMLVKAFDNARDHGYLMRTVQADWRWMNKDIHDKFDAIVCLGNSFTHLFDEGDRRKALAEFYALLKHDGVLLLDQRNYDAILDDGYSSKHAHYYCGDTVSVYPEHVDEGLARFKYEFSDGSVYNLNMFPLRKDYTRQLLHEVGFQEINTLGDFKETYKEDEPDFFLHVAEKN

[2] = target: T1, MpGSMT; assay: X-ray crystal structure, soaking; assay type: binding
[3] = target: T2, MpGSMT (Methanohalophilus portucalensis, UniProt F6KV61, N100Q); assay: methyltransferase activity with betaine; assay type: biochemical; details: feedback inhibitor, allosteric; mutant has low activity
T2 construct: gene gsmt
T2 sequence (F6KV61 entry or part of it N100Q): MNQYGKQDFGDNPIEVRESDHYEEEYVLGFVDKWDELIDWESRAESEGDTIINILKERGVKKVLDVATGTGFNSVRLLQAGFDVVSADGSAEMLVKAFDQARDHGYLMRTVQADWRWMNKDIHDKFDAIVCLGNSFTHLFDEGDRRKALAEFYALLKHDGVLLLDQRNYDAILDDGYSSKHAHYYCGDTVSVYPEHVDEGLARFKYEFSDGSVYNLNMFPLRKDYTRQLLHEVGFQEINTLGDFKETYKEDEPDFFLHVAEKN

[4] = target: T3, MpGSMT (Methanohalophilus portucalensis, UniProt F6KV61, H104K); assay: methyltransferase activity with betaine; assay type: biochemical; details: feedback inhibitor, allosteric
T3 construct: gene gsmt
T3 sequence (F6KV61 entry or part of it H104K): as the sequence (F6KV61 entry or part of it N100Q) above, with Q100N, H104K counted along it

[5] = target: T1, MpGSMT; assay: X-ray crystal structure, co-crystal and soaking; assay type: binding; details: active site; with SAH (5HIL) or SAM (5GWX); inactive conformation
Source text: X-ray crystal structure, co-crystal and soaking on […] | crystal structure of […] in complex with the sarcosine substrate and the SAH cofactor

SMILES: Nc1ncnc2c1ncn2[C@@H]1O[C@H](CSCC[C@H](N)C(=O)O)[C@@H](O)[C@H]1O [SAH]
- X-ray crystal structure, co-crystal [1]: Clear electron density is visible for bound sarcosine and SAH

SMILES: C[S+](CC[C@H](N)C(=O)O)C[C@H]1O[C@@H](n2cnc3c(N)ncnc32)[C@H](O)[C@@H]1O (stereo partly drawn) [SAM]
- X-ray crystal structure, soaking ([2]; cofactor site, binary (5HIK) or with sarcosine (5GWX), 2 mM SAM): clear electron density maps corresponding to sarcosine and SAM in the active site

SMILES: C[N+](C)(C)CC(=O)[O-] [betaine]
- betaine sensitivity [3]: MpGSMT^N100Q displayed a decreased response to betaine
- X-ray crystal structure, soaking ([2]; allosteric feedback inhibitor site near Trp40, 1.7 M betaine soak): the observed MpGSMT structure indeed harbors a pocket for interacting directly with betaine
- betaine sensitivity [4]: MpGSMT^H104K exhibited increased sensitivity to betaine

SMILES: CNCC(=O)O [sarcosine]
- X-ray crystal structure, co-crystal and soaking [5]: crystal structure of MpGSMT in complex with the sarcosine substrate and the SAH cofactor
